Where “and” joins values, the source holds several entries; their conditions need not be identical. Identical values can stand only once. Starred links: 1 amine or outer side, 2 acyl side, 3 side chain; linkers in the order of their positions; H or OH if unused. Positions of bridges follow the written chain, without caps; N, C: chain ends. Non-standard residues stand in square brackets, D forms with d. Residues, ends and D or L forms follow the SMILES beside them. Trp(2-yl) = O=C([C@H](Cc1c([*:3])[nH]c2ccccc12)N[*:1])[*:2]; Ile(4R-OH,5-OH) = C[C@H]([C@H](N)C(=O)O)[C@@H](O)CO; X5 = COC(=O)N[C@@H]1C[C@@H](C(=O)[*:2])N([*:1])C1
Assays:
[1] = Viability assay against CHO cells (MTT colorimetric assay); assay type: cell-based, Chinese hamster; conditions: Chinese hamster, CHO cells, 72 h, replicates n = 1, 2, 3, read-out: % viable cells
Description: (§1) (f) Cell culture: Cells were cultured in Minimum Essential Medium Eagle—Alpha Modification (α-MEM) or […] Dulbecco's Modified Eagle Medium (DMEM), purchased from Gibco. […] All cell culture plastic ware was obtained from Coming or Falcon. Cells were cultured at 37° C. in a humidified chamber with 5% CO2. When used in cell culture, DMSO was purified by filtration through a […] filter. All experiments were carried out in a laminar flow culture cabinet, unless otherwise noted.
(§2) Immortalized CHO cells had been stored in liquid nitrogen. To revive cells, a 1-mL tube of the frozen cells in medium containing 10% DMSO was warmed in a 30° C. water bath and diluted with 9 mL of fresh media. Media contained 10% FBS and 100 U/mL penicillin and […] streptomycin, unless otherwise indicated. The cells were incubated in a T-25 flask at 37° C. at 5% CO2. After 24 hours, the medium was aspirated and replaced with fresh medium. When cells reached a level of 90-100% confluence, they were sub-cultured. […] Once the cells were detached from the tissue culture flask, 3-5 mL media was added to quench the trypsin and the mixture was transferred to a 10 mL centrifuge tube. The mixture was centrifuged for 5 min at […], and the supernatant was discarded. The cells were suspended in fresh medium, diluted as required, and transferred to a new culture flask.
(§3) To assay cell viability, a nearly confluent tissue culture flask was trypsinized, and the cells were counted following treatment with Trypan blue, using a hemocytometer. The cells were then diluted to the appropriate stock concentrations in fresh medium and transferred in 100 μL to a 96-well plate using a multi-channel pipette. The number of cells plated varied from experiment to experiment. These were incubated at 37° C. and 5% CO2 for a 24-hour period to allow for adherence. The medium was aspirated, and fresh medium was added, which contained the desired additives in DMSO. The cells were then re-incubated for 72 h. At the completion of the experiment, a 100 μL aliquot of 25 mg/mL MTT in phosphate-buffered saline (PBS) was added to each well. The plate was incubated three hours further to allow for the formation of the formazan product in viable cells. The media was carefully aspirated, and the purple product was solubilized in DMSO. […] Data was processed in Microsoft Excel and GraphPad Prism. Experiments were performed in triplicates unless otherwise noted, and the error bars were calculated as the standard error of the mean.
(§4) Each cell line was plated in a 96-well plate, with 100 μL of the stock solution per well (5000 cells per well) and incubated for 24 hours. […] The cells were incubated for 72 hours, at which point viability was assessed as described.

[2] = system: CHO cells; assay: as above; assay type: cell-based, Chinese hamster; conditions: 72 h, replicates n = 1, 2, 3, listed as MeOCOHN-Pro-amanitin (32)
Description: as §1, §2, §3, §4

**Q.** For `CC[C@H](C)[C@@H]1NC(=O)CNC(=O)[C@@H]2Cc3c([nH]c4ccccc34)SC[C@H](NC(=O)CNC1=O)C(=O)N[C@@H](CC(N)=O)C(=O)N1C[C@H](NC(=O)OC)C[C@H]1C(=O)N[C@@H]([C@@H](C)[C@@H](O)CO)C(=O)N2` [Compound 32, MeOCONH-Pro-amanitin] (cyclo(CN[X5][Ile(4R-OH,5-OH)][Trp(2-yl)]GIG); thioether 1-5), which viability at 72 h, 1e-05 M ([1]; 1e-005 M) is on record?
**A.** 86%

**Q.** What about the viability at 72 h, 1.25e-06 M ([1]; 1.25e-006 M) of the same compound?
**A.** 89%

**Q.** What about the viability at 72 h, 1.56e-07 M ([1]; 1.56e-007 M) of the same compound?
**A.** 88%

**Q.** And the viability at 72 h, 2e-05 M ([1]; 2e-005 M)?
**A.** 99%

**Q.** What about the viability at 72 h, 2.5e-06 M ([1]; 2.5e-006 M) of the same compound?
**A.** 88%

**Q.** And the viability at 72 h, 3.125e-07 M ([1]; 3.125e-007 M)?
**A.** 89%

**Q.** And the viability at 72 h, 5e-06 M ([1]; 5e-006 M)?
**A.** 92%

**Q.** And the viability at 72 h, 6.25e-07 M ([1]; 6.25e-007 M)?
**A.** 91%

**Q.** And the viability at 72 h, 7.8e-08 M ([1]; 7.8e-008 M)?
**A.** 88%

**Q.** What about the “% viable cells” value ([2]; 1e-005 M) of the same compound?
**A.** 96%

**Q.** What about the “% viable cells” value ([2]; 1.25e-006 M) of the same compound?
**A.** 93%

**Q.** And the “% viable cells” value ([2]; 1.56e-007 M)?
**A.** 87% and 96%

**Q.** And the “% viable cells” value ([2]; 2e-005 M)?
**A.** 103% and 102%

**Q.** What about the “% viable cells” value ([2]; 3.125e-007 M) of the same compound?
**A.** 87% and 94%

**Q.** What about the “% viable cells” value ([2]; 5e-006 M) of the same compound?
**A.** 87%

**Q.** And the “% viable cells” value ([2]; 6.25e-007 M)?
**A.** 98%

**Q.** And the “% viable cells” value ([2]; 7.8e-008 M)?
**A.** 97%

From US20240082416A1, “AMATOXIN ANALOGS AND USES THEREOF” (THE UNIVERSITY OF BRITISH COLUMBIA, priority 2020, published 2024)
